Values of other authors as cited in patent US20100221818A1, “Device for the extemporaneous preparation of active preparations” (ALAXIA, priority 2009, published 2010).

Details: in the absence of peroxidase and/or of hydrogen peroxide

- half-life: approximately 24 hours
SMILES: N#CSO [hypothiocyanite]
